In patent US20040091900A1, “Materials and methods for providing plants with increased resistance to environmental stress” (priority 2002, published 2004):

How the values were obtained:
[1] = test system: SspI; assay: Compatible solute assay: protection of SspI activity during heat treatment; format: biochemical; conditions: for protection of SspI activity / protection of SspI function: 50° C. for 15 min; for protection of SspI activity, time course: at least 25 min at 50° C., without sugars almost 90% activity lost; for protection of SspI function: 14 mM sugar (physiological concentration)
Method: SspI (New England Biolabs) is a bacterial restriction enzyme that cuts double stranded DNA. In this assay it cuts pGEX-4T-2 circular plasmid twice and generates 3.77 kb and 1.19 kb bands in the reaction buffer (50 mM NaCl, 100 mM Tris-HCL, […] MgCl2, 0.025% Triton X-100 pH 7.5 at 25° C.). Five units of SspI in reaction buffer in the absence of maltose were exposed to 50° C. for 15 min where 50% of the enzyme activity was lost and also exposed to heat temperature in the presence of 14, 100, 200 and 400 mM maltose. Then substrate, 0.5 μg of pGEX-4T-2 circular plasmid (Amersham Biosciences, Piscataway, N.J.), was added to the reaction mixture and incubated at 37 ° C. for 1 hr. […] To visualize the products, 1% agarose gel was run and 22 μl of total 50 μl reaction was loaded on to gel. The gel was run at 100 V for 30 min and stained with EtBr to visualize the product. The top band was quantified to assess the protection by maltose. Also, the same assay was done using sucrose, trehalose and glucose to compare the ability of maltose as a compatible solute. A time course experiment was conducted where SspI was treated in the absence and in the presence of 400 mM maltose, glucose, sucrose and trehalose at 50° C. for 0, 5, 10, 15, 20 and 25 min.
Compatible solutes can stabilize proteins and membranes and contribute to cell osmotic potential during stress. The compatible solute potential of maltose was tested for three different enzymes namely; SspI, Glucose-6-phosphate dehydrogenase (G6PDH) and alcohol dehydrogenase (ADH). The restriction enzyme, SspI (FIG. 4A), cuts the substrate plasmid (pGEX-4T-2; 4.97 kb) twice leading to 1 and 4 kb plasmid fragments, when the enzyme is fully functional. […] When the intensity of the 5 kb top band and the 4 kb band was equal, the enzyme was considered to have lost 50% activity. Sspl was exposed to 50° C. for 15 min (FIG. 4A) in the absence of maltose (0 mM as a control) and in the presence of (14, 100, 200, and 400 mM) maltose. The 5 kb top band, which represented the loss of activity, was quantified to determine relative protection. When the enzyme was fully active, the top band was not visible (FIG. 4A, lane C) and the intensity of the top band increased with increased loss of enzyme activity (lane 2; 0 mM sugars). […] This protection increased with the increasing maltose concentration (FIG. 4A). At 200 and 400 mM, the intensity of the top band was much less compared to 0 mM maltose.

[2] = biological target: T1, Glucose-6-phosphate dehydrogenase (G6PDH) (Leuconostoc mesenteroides, UniProt P11411); assay: Compatible solute assay: protection of G6PDH activity during heat shock; format: biochemical; conditions: 14, 100, 200, 400 mM sugar, 48° C. for 15 min
T1 construct: purchased Worthington Biochemical Company
T1 sequence (P11411 whole entry): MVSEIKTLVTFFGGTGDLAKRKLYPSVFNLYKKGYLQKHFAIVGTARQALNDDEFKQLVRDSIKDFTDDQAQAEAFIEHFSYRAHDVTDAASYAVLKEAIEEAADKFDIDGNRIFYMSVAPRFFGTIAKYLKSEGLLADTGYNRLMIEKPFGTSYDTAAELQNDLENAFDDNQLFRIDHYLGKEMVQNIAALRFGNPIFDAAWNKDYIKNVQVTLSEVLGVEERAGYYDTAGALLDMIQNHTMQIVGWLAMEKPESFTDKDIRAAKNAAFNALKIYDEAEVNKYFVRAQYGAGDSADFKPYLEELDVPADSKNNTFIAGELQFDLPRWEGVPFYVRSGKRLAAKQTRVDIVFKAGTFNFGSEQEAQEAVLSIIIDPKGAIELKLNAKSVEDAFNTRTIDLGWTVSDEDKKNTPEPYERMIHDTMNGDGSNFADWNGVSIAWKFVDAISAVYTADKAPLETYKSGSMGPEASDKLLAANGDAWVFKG
Method: Glucose-6-phosphate dehydrogenase (G6PDH): Lyophilized G6PDH from Leuconostoc mesenteroides was purchased from Worthington Biochemical Company. G6PDH in 50 mM Tris-HCl pH 7.8 was exposed to 48° C. for 15 min, which reduced activity by 50%. G6PDH in 50 mM Tris-HCl pH 7.8 was heat shocked in the absence and presence of 14, 100, 200, and 400 mM sugars: maltose, trehalose, glucose and sucrose. […] The reaction (1.5 ml) included 2.97 mM MgCl2, 50 mM Tris-HCl pH 7.8, 0.6 mM β-NADP^+ (freshly prepared), 10 mM Glucose-6-phosphate , and 595 ng heat shocked G6PDH. Production of NADPH was followed for 3 min at 340 nm using Lambda 3A UV/VIS spectrophotometer (PERKIN-ELMER). A time course experiment with two replications was conducted where G6PDH was treated in the absence and in the presence of 400 mM maltose, glucose, sucrose and trehalose at 48° C. for 0, 10, 15, 20 and 25 min.
To test whether this protection is general, compatible solute assays were performed using G6PDH, which uses D-glucose-6-phosphate and NAD(P)^+ as substrates to produce D-glucono-δ-lactone-P and NAD(P)H (FIG. 4B). […] The same performance was seen (FIG. 7B), when the time was extended to 25 min in the presence of 400 mM of the above sugars.

[3] = test system: photosynthetic electron transport chain of thylakoid membranes; assay: In vitro freezing stress of thylakoids, whole electron transport chain assay with DCPIP; format: biochemical, Pea; conditions: −15° C. for 20 hr; for electron transport chain activity protection after freezing: 60% reduction without sugars
Method: (§1) Pea chloroplast was isolated according to Cline (1993). Aerial portions of 50 g pea plant were chopped into small pieces into 200 ml of ice cold GR-buffer (50 mM HEPES/adjust pH 7.5 with KOH, 0.33 M sorbitol, 1 mM MgCl2, 1 mM MnCl2, 2 mM EDTA, 5 mM Na-ascorbate, 1%, BSA) and homogenized using a probe (named PTA 35/2 m). The homogenate was filtered through 1 layer of Mira cloth and centrifuged at 2000×g for 3 min in a swing-out rotor. Pellet was resuspended in GR buffer, overlayed on a Percoll gradient and centrifuged at 2000×g for 15 min in a swing out rotor. Intact plastids were collected, diluted three times with buffer (50 MM HEPES/KOH pH 8, 0.33 M sorbitol), and pelleted 1.500×g for 5 min. The pellet was resuspended in 25 ml of buffer (50 mM HEPES/KOH pH 8, 0.33 M sorbitol) and chlorophyll content was quantified.
(§2) Thylakoids were isolated according to Santarius (1996). The isolated chloroplast pellets were ruptured by resuspending at 1 mg/ml in 10 mM Hepes/KOH, pH 8, 5 mM MgCl2, and incubating 2 min on ice. Then, wash buffer 1:1 (70 mM KCl, 30 mM NaNO3, 20 mM K2SO4, 5 mM MgCl2, and 5 mM Hepes/KOH pH 7.5) was added and centrifuged 3300×g for 8 min to collect thylakoid membranes. The pellet was washed at 1 mg/ml in wash buffer and centrifuged at 3300×g for 8 min. Thylakoids were resuspended in wash buffer corresponding to 1 mg/ml chlorophyll.
Freezing stress: Aliqutots of 0.2 ml thylakoid in wash buffer (70 mM KCl, 30 mM NaNO3, 20 mM K2SO4, 5 mM MgCl2, and 5 mM Hepes/KOH pH 7.5) corresponding to 0.5 mg/ml chlorophyll were exposed to freezing stress at −15° C. for 20 hrs in absence and presence of 2.5, 14, 28, 56, and 112 mM maltose, glucose and trehalose. Full activity of the whole electron transport chain was measured after isolation of thylakoid membranes. Four independent experiments with three (3) replications each were done.
(§3) Whole electron transport chain assay, with DCPIP: This assay was done according to Hipkins and Baker (1986). Assay buffer included 0.1 M sorbitol, 50 mM Hepes-KOH pH 7.6, 5 mM NaCl, 5 mM MgCl2, 0.1 mM DCPIP. The reaction was mixed after addition of thylakoid corresponding to 25 μg/ml chlorophyll and illuminated for 10 sec at 200 μmol photons m^−2 sec^−1 light intensity. Activity of electron transport chain was determined using redox dye DCPIP reduction at 595 nm.
Pea thylakoids were frozen (FIG. 6) at −15° C. for 20 hr, which caused a 60% reduction of electron transport chain activity. […] This protection increased gradually to 93% with the increasing concentration of maltose and was very similar to that of trehalose. Glucose at 112 mM gave 47% protection, which was much less than that of maltose or trehalose.

[4] = test system: photosynthetic electron transport chain of thylakoid membranes; assay: In vitro heat shock of thylakoids, whole electron transport chain assay with DCPIP; format: biochemical, Pea; conditions: 40° C. for 4 min, 30% activity remained without sugars
Method: as §1, §2
Heat shock: Aliquots of 0.2 ml thylakoid in wash buffer (70 mM KCl, 30 mM NaNO3, 20 mM K2SO4, 5 mM MgCl2, and 5 mM Hepes/KOH pH 7.5) corresponding to 0.5 mg/ml chlorophyll were, exposed to heat shock at 40° C. for 4 min in the absence and presence of 2.5, 14, 28, 56, and 112 mM maltose, glucose and trehalose. Full activity of the whole electron transport chain was measured after isolation of thylakoid membranes. Five independent experiments with 3 replications each were done.
as §3
Maltose, trehalose and glucose were tested in vitro for compatible solute properties using thylakoid membranes for the functionality of electron transport chain against heat denaturation (FIG. 5) and freezing stress (FIG. 6). Pea thylakoids were exposed to 40° C. for 4 min (FIG. 5), where 30% of electron transport chain activity remained in the absence of compatible solute sugars. Electron transport chain activity was followed by reduction of a redox dye 2,6-dichlorophenolindophenol (DCPIP), which accepts electrons from QB of PSII and FeSA of PSI (Häder and Tevini, 1987). At physiological concentrations of 2.5 and 14 mM maltose, photosynthetic electron transport chain activity was protected 3 and 5%. respectively, during heat shock.

SMILES | protection of SspI activity ([1]; 400 mM sugar) | protection of SspI activity, time course ([1]; 400 mM sugar) | protection of G6PDH activity [2] | protection of SspI function [1] | protection of SspI function ([1]; listed as Maltose) | protection of SspI activity ([1]; 200 mM sugar) | electron transport chain activity protection after freezing ([3]; 2.5 mM sugar) | electron transport chain activity protection after freezing ([3]; 14 mM sugar) | electron transport chain activity protection after freezing, reached with increasing concentration ([3]; increasing concentration (concentration not given; up to 112 mM tested)) | electron transport chain activity protected during heat shock ([4]; 2.5 mM sugar) | electron transport chain activity protected during heat shock ([4]; 14 mM sugar) | electron transport chain activity protected during heat shock ([4]; 112 mM sugar) | electron transport chain activity protection after freezing ([3]; 112 mM sugar)
OC[C@H]1O[C@@](CO)(O[C@H]2O[C@H](CO)[C@@H](O)[C@H](O)[C@H]2O)[C@@H](O)[C@@H]1O [sucrose] | 100% | 100% |  |  |  |  |  |  |  |  |  |  | 
OC[C@H]1O[C@H](O[C@H]2[C@H](O)[C@@H](O)[C@H](O)O[C@@H]2CO)[C@H](O)[C@@H](O)[C@@H]1O [maltose, 4-O-α-D-Glucopyranosyl-β-D-glucose] | 85-90% | about 90% | performed as well as the other compatible solute sugars | able to partially protect SspI function | performed as well as trehalose | 80-90% | 2% | 24% | 93% | 3% | 5% | 45% | 
OC[C@H]1O[C@H](O[C@H]2O[C@H](CO)[C@@H](O)[C@H](O)[C@H]2O)[C@H](O)[C@@H](O)[C@@H]1O [trehalose] | 100% | 100% |  |  |  | 100% |  |  |  |  |  | 54% | 
O=C[C@H](O)[C@@H](O)[C@H](O)[C@H](O)CO [glucose, reference compound] | 100% | 100% |  |  |  |  |  |  |  |  |  | 30% | 47%
